Measured values taken from PMC7327383, “The affinity and selectivity of α‐adrenoceptor antagonists, antidepressants, and antipsychotics for the human α1A, α1B, and α1D‐adrenoceptors” (Pharmacology Research & Perspectives, 2020).
Read-outs that look alike come from different tables or passages of the source.

Tests used:
[1] = molecular target: T1, full-length human α1D-adrenoceptor (Homo sapiens, UniProt P25100); assay: [3H]prazosin whole-cell competition binding, CHO-α1D cells; settings: for Selectivity ratio α1B vs α1D / Selectivity ratio α1A vs α1D: ratio of KD values, higher α1D affinity (site 1 KD)
T1 sequence (P25100 1-572): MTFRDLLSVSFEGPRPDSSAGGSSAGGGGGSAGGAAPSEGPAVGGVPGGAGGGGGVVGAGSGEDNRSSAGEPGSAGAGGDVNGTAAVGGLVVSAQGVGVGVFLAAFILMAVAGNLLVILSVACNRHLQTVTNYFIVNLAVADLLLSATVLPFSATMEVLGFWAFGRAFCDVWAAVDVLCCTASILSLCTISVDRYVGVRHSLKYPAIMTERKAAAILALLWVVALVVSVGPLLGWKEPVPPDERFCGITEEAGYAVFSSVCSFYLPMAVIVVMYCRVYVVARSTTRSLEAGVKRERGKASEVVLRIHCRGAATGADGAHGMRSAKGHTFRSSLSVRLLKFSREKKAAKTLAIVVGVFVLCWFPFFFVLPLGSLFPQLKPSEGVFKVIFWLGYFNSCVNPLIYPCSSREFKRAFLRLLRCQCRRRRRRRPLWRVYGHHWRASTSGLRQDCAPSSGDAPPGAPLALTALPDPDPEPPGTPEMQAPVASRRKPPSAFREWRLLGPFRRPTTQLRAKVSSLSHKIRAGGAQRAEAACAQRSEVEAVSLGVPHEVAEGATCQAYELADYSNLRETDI

human α1B-adrenoceptor = molecular target: T2, human α1B-adrenoceptor (Homo sapiens, UniProt P35368); assay: [3H]prazosin whole-cell competition binding, CHO-α1B cells; settings: for selectivity α1B vs α1D: ratio, 1 = no selectivity for a subtype over another
T2 construct: CHO cells stably expressing either the full‐length human α1A, α1B, or α1D‐adrenoceptor
T2 sequence (P35368 1-520): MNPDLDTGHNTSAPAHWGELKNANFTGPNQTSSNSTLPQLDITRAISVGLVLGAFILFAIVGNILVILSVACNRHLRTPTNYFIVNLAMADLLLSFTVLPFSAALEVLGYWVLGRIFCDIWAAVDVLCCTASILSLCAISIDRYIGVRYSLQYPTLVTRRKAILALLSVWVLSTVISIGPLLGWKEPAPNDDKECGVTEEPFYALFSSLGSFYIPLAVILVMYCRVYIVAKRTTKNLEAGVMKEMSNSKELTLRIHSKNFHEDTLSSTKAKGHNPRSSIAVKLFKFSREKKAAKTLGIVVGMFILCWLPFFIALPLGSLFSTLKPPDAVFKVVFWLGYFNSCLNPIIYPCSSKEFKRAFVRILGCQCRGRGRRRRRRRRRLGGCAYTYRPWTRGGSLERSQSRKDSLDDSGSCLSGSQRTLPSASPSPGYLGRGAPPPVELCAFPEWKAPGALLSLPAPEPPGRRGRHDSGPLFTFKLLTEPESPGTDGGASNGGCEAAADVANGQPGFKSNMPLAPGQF

human α1A-adrenoceptor = molecular target: T3, human α1A-adrenoceptor (Homo sapiens, UniProt P35348); assay: [3H]prazosin whole-cell competition binding, CHO-α1A cells; settings: for selectivity α1A vs 1D / selectivity α1A vs α1B: ratio, 1 = no selectivity for a subtype over another
T3 construct: CHO cells stably expressing either the full‐length human α1A, α1B, or α1D‐adrenoceptor
T3 sequence (P35348 1-466): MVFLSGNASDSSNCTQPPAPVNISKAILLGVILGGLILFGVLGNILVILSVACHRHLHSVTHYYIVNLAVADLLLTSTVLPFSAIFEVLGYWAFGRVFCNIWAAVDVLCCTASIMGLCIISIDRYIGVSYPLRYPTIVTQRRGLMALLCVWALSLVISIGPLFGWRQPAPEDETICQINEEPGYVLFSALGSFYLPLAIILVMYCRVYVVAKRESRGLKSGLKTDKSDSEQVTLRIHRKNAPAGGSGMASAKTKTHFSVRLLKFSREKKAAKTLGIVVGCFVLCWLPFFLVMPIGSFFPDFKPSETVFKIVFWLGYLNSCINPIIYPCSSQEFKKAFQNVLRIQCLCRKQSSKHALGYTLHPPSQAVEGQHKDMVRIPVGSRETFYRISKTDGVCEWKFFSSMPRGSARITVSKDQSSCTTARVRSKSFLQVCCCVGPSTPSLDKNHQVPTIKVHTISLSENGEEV

[2] = single-component inhibition curve, given as log KD (negative), mean ± SE mean, read-out: Log KD α1B (converted)
[3] = ratio of KD values, higher α1A affinity, 1.0 under vs = none
[4] = ratio of KD values, printed under α1A = higher α1A affinity, 1.0 under vs = none
[5] = single-component inhibition curve, given as log KD (negative), mean ± SE mean, read-out: Log KD α1A (converted)
[6] = high-affinity component of two-component curve, control, used for selectivity
[7] = low-affinity component of two-component curve, control
[8] = two-component inhibition curve, proportion of site 1
[9] = share of site 1 in the two-component inhibition curve
[10] = Log KD α1D, single-component inhibition curve, given as log KD (negative), mean ± SE mean
[11] = ratio of KD values, higher α1B affinity, 1.0 under vs = none
[12] = percentage of inhibition through first component, control
[13] = single-component inhibition curve, given as log KD (negative), mean ± SE mean
[14] = log KD from 3H-prazosin whole cell binding, CHO cells, mean ± s.e.mean
[15] = selectivity ratio, 1 = no selectivity for a given receptor subtype over another

Row | Structure (SMILES) | Selectivity ratio α1B vs α1D [1] [fold] | selectivity α1B vs α1D (human α1B-adrenoceptor) | Kd (human α1B-adrenoceptor; [2]) [nM] | Selectivity ratio α1A vs α1D (human α1A-adrenoceptor; [3]) [fold] | Selectivity ratio α1A vs α1B (human α1A-adrenoceptor; [4]) [fold] | Kd (human α1A-adrenoceptor; [5]) [nM] | Kd [1, 10] [nM] | also measured
1 | CC(C)(C)NCC(O)COc1cccc2[nH]c(C#N)cc12 (centres unmarked) [Cyanopindolol] | 3.1 | 3.1 | 12300 | 1.5 | 4.8 | 2570 | – | Kd [1]: 3980 nM
2 | ClCCN(Cc1ccccc1)Cc1ccccc1 [Dibenamine] | 6.3 | 6.3 | – | 3.5 | 22 | – | – | Log KD α1D site 1 [1, 6]: −7.37 ± 0.15; Log KD α1D site 2 [1, 7]: −5.00 ± 0.14; % site 1 α1D [1, 8]: -7.37 ± 0.15 -5.00 ± 0.14 47.8 ± 3.2% site 1; Log KD α1B site 1 (human α1B-adrenoceptor; high-affinity component of two-component curve, control): −6.57 ± 0.07; Log KD α1B site 2 (human α1B-adrenoceptor; [7]): −4.66 ± 0.06; % site 1, α1B (human α1B-adrenoceptor; [9]): -6.57 ± 0.07 -4.66 ± 0.06 67.6 ± 2.6% site 1; % site 1, α1B (human α1B-adrenoceptor; [8]): -6.57 ± 0.07 -4.66 ± 0.06 67.6 ± 2.6% site 1; Log KD α1A site 1 (human α1A-adrenoceptor; high-affinity component of two-component curve, control (no thiosulphate)): −7.91 ± 0.06; Log KD α1A site 2 (human α1A-adrenoceptor; [7]): −5.32 ± 0.08; % site 1, α1A (human α1A-adrenoceptor; [9]): -7.91 ± 0.06 -5.32 ± 0.08 83.0 ± 1.8% site 1; % site 1, α1A (human α1A-adrenoceptor; [8]): -7.91 ± 0.06 -5.32 ± 0.08 83.0 ± 1.8% site 1
3 | CN(C)CC/C=C1\c2ccccc2CSc2ccccc21 [Dosulepin] | 2.0 | 2.0 | 5250 | 34 | 68 | 77.6 | 2630 | –
4 | CCC1(C2=NCCN2)Cc2ccccc2O1 (centres unmarked) [Efaroxan] | 5.0 | 5.0 | 53700 | 3.2 | 16 | 3390 | 10700 | –
5 | OCCN1CCN(CCC=C2c3ccccc3Sc3ccc(C(F)(F)F)cc32)CC1 [Flupenthixol] | – | – | 33.9 | 25 | 7.6 | 4.47 | 110 | Selectivity ratio α1B vs α1D (human α1B-adrenoceptor; [11]): 3.2 fold
6 | O=C1c2ccccc2CCC1CNCCc1ccc(O)cc1 (centres unmarked) [HEAT] | – | – | – | 2.9 | 3.4 | – | – | Log KD α1D site 1 [1, 6]: −8.11 ± 0.18; Log KD α1D site 2 [1, 7]: −5.15 ± 0.26; % site 1 α1D [1, 12]: 64.1 ± 4.1% site 1; % site 1 α1D [1, 8]: -8.11 ± 0.18 -5.15 ± 0.26 64.1 ± 4.1% site 1; Selectivity ratio α1B vs α1D (human α1B-adrenoceptor; [11]): 1.2 fold; Log KD α1B (human α1B-adrenoceptor; [13]): −8.04 ± 0.04; Log KD α1A (human α1A-adrenoceptor; [13]): −8.57 ± 0.06
7 | Cc1ccc(OCC(O)C(C)NC(C)C)c2c1CCC2 (centres unmarked) [ICI118551] | 5.8 | 5.8 | – | 1.9 | 11 | 5890 | 11000 | Kd (human α1B-adrenoceptor; app: top concentration inhibited most but not all specific binding, curve extrapolated, read-out: Log KD α1B (apparent) (converted)): 63100 nM
8 | CC(C(O)c1ccc(O)cc1)N1CCC(Cc2ccccc2)CC1 (centres unmarked) [Ifenprodil] | 43 | 43 | 324 | 2.9 | 15 | 21.9 | – | Kd ([1]; Log KD α1D site 1, high-affinity component of two-component curve, control, used for selectivity): 7.59 nM; Log KD α1D site 2 [1, 7]: −6.05 ± 0.13; % site 1 α1D [1, 12]: 48.8 ± 4.5% site 1; % site 1 α1D [1, 8]: -8.12 ± 0.18 -6.05 ± 0.13 48.8 ± 4.5% site 1
9 | CCn1ccnc1CC1COc2ccccc2O1 (centres unmarked) [Imiloxan] | >10 | >10 | – | – | >4.0 | 25100 | 9550 | Selectivity ratio α1A vs α1D [1]: 2.6 fold; selectivity α1A vs 1D (human α1A-adrenoceptor): 2.6
10 | CN(C)CCCN1c2ccccc2CCc2ccccc21 [Imipramine] | 1.3 | 1.3 | 1740 | – | – | 33.9 | 1290 | Selectivity ratio α1A vs α1B (human α1A-adrenoceptor): 51 fold; Selectivity ratio α1A vs α1D (human α1A-adrenoceptor): 38 fold
11 | O=C(NC1CCN(CCc2c[nH]c3ccccc23)CC1)c1ccccc1 [Indoramin] | – | – | 151 | 138 | 41 | 3.72 | 513 | Selectivity ratio α1B vs α1D (human α1B-adrenoceptor; [11]): 3.4 fold; α1A selectivity (human α1A-adrenoceptor; for α1A over the α1B or α1D-adrenoceptors): 40 fold
12 | CN1CCN(c2ccc(Nc3c4ccccc4nc4ccccc34)cc2)CC1 [JP1302] | – | – | – | – | – | – | – | Log KD α1D [1, 13]: −5.58 ± 0.09; Log KD α1B (human α1B-adrenoceptor; [13]): −5.46 ± 0.02; Log KD α1A (human α1A-adrenoceptor; [13]): −6.21 ± 0.04
13 | CN(CCCN1c2ccccc2CCc2ccccc21)CC(=O)c1ccc(Cl)cc1 [Lofepramine] | – | – | 3630 | 37 | 32 | 115 | 4270 | Selectivity ratio α1B vs α1D (human α1B-adrenoceptor; [11]): 1.2 fold
14 | CN1CC[C@]2(CCN3CCc4c(oc5ccccc45)[C@@H]3C2)N(C)C1=O.Cl [MK-912] | – | 69 | – | – | – | – | – | Log KD α1D site 1 ([1]; two-component inhibition curve, first (high-affinity) component): -7.30 ± 0.16; % site 1 α1D [1, 8]: 61.2 ± 5.5%; Log KD α1D site 2 ([1]; two-component inhibition curve, second (low-affinity) component): -5.50 ± 0.25; Log KD α1B (human α1B-adrenoceptor; [14]): -5.46 ± 0.05; Log KD α1A (human α1A-adrenoceptor; [14]): -6.76 ± 0.03; selectivity α1A vs 1D (human α1A-adrenoceptor): 3.5; selectivity α1A vs α1B (human α1A-adrenoceptor): 20
15 | CN1CC[C@]2(CCN3CCc4c(oc5ccccc45)[C@@H]3C2)N(C)C1=O.Cl [MK‐912] | 69 | – | – | – | 20 | – | – | Log KD α1D site 1 [1, 6]: −7.30 ± 0.16; Log KD α1D site 2 [1, 7]: −5.50 ± 0.25; % site 1 α1D [1, 12]: 61.2 ± 5.5% site 1; Selectivity ratio α1A vs α1D [1]: 3.5 fold; Log KD α1B (human α1B-adrenoceptor; [13]): −5.46 ± 0.05; Log KD α1A (human α1A-adrenoceptor; [13]): −6.76 ± 0.03
16 | COc1ccccc1N1CCN(CC(O)COc2cccc3ccccc23)CC1 (centres unmarked) [Naftopidil] | 1.7 | 1.7 | 151 | 8.1 | 14 | 10.7 | 87.1 | –
17 | CNCCCN1c2ccccc2CCc2ccc(Cl)cc21 [Norclomipramine] | – | – | – | 48 | 48 | – | – | Log KD α1D [1, 13]: −5.84 ± 0.06; Selectivity ratio α1B vs α1D (human α1B-adrenoceptor; [11]): 1.0 fold; Log KD α1B (human α1B-adrenoceptor; [13]): −5.84 ± 0.04; selectivity α1A vs 1D (human α1A-adrenoceptor): 48; selectivity α1A vs α1B (human α1A-adrenoceptor): 48; selectivities α1A vs α1B (human α1A-adrenoceptor; [15]): 48; selectivities α1A vs α1D (human α1A-adrenoceptor; [15]): 48; Log KD α1A (human α1A-adrenoceptor; [13]): −7.52 ± 0.08
18 | CNCCC=C1c2ccccc2CCc2ccccc21 [Nortriptyline] | – | – | 851 | – | – | – | 1550 | Selectivity ratio α1B vs α1D (human α1B-adrenoceptor): 1.8 fold; Selectivity ratio α1A vs α1B (human α1A-adrenoceptor): 47 fold; Selectivity ratio α1A vs α1D (human α1A-adrenoceptor): 85 fold; Kd (human α1A-adrenoceptor; Log KD α1A, single-component inhibition curve, given as log KD (negative), mean ± SE mean): 18.2 nM
